According to patent US20100285140A1, “ANTIMICROBIAL AGENT FOR GRAM-POSITIVE BACTERIA” (priority 2007, published 2010):
Values after ≈ are worked out from the molar mass of the structure shown.

Key:
Assay in all cases: broth microdilution MIC/MBC
Type in all cases: cell-based
[1] = tested on: MRSA clinical isolate 2022 blaZ(−); details: Staphylococcus aureus, ABPC
[2] = tested on: MRSA clinical isolate 2005 blaZ(+); details: Staphylococcus aureus, ABPC
MSSA JCM2874 = details: Staphylococcus aureus, ABPC
MRSA JCM8703 = details: Staphylococcus aureus, ABPC
[3] = tested on: MRSA clinical isolate 2526 blaZ(+); details: Staphylococcus aureus, ABPC
MRSA N315 = details: Staphylococcus aureus, ABPC
MSSA ATCC6538 = details: Staphylococcus aureus, ABPC
VSE5804 = details: Enterococcus, ABPC
Procedure: Ampicillin (ABPC) was used as a positive control. The measurement was carried out in accordance with a broth microdilution method (NCCLS). […] These serial dilutions were placed in a 96-well plate, and a bacterial strain was added to each well at an amount of 10^5 CFU/ml, followed by incubation at 35° C. for 18 hours. In the case where turbidity was visually observed, it was judged that the bacterial strain grew. The lowest concentration at which the bacterial growth was not observed was defined as MIC. A solution was collected from the well in which bacterial growth was not observed, added to an antibiotic-free medium, and then incubated at 35° C. for 18 hours, followed by visually observing existence of turbidity. The lowest concentration at which turbidity was not observed was defined as MBC. Values in the tables are: ABPC, μg/ml; polymer particles, mg/ml. Numbers in the parentheses indicate the dilution factor.

VRE GTC02000 = details: Enterococcus, ABPC
[4] = tested on: MRSA clinical isolate 1801 blaZ(−); details: Staphylococcus aureus, ABPC

MIC [1]: 16 µg/mL (≈ 45.8 µM)
MIC [2]: 64 µg/mL (≈ 183 µM)
MIC (MSSA JCM2874): 2 µg/mL (≈ 5.72 µM)
MIC (MRSA JCM8703): 64 µg/mL (≈ 183 µM)
MIC [3]: 64 µg/mL (≈ 183 µM)
MIC (MSSA ATCC6538): 0.063 µg/mL (≈ 0.18 µM)
MIC (VSE5804): 0.5 µg/mL (≈ 1.43 µM)
MIC (VRE GTC02000): 1 µg/mL (≈ 2.86 µM)
MIC [4]: 16 µg/mL (≈ 45.8 µM)
Structure (SMILES): CC1(C)S[C@@H]2[C@H](NC(=O)[C@H](N)c3ccccc3)C(=O)N2[C@H]1C(=O)O [ABPC, Ampicillin]
MBC [1]: 16 µg/mL (≈ 45.8 µM)
MBC [2]: 64 µg/mL (≈ 183 µM)
MBC (MSSA JCM2874): 2 µg/mL (≈ 5.72 µM)
MBC (MRSA JCM8703): 64 µg/mL (≈ 183 µM)
MBC [3]: 64 µg/mL (≈ 183 µM)
MBC (MRSA N315): 32 µg/mL (≈ 91.6 µM)
MBC (MSSA ATCC6538): 0.063 µg/mL (≈ 0.18 µM)
MBC (VSE5804): 0.5 µg/mL (≈ 1.43 µM)
MBC (VRE GTC02000): 1 µg/mL (≈ 2.86 µM)
MBC [4]: 16 µg/mL (≈ 45.8 µM)
